The source of these data is patent US10059720B2, “Pyridine derivative” (Astellas Pharma Inc., priority 2014, dated 2018).

Counter-ions that a name gives are not always drawn. Like-named read-outs stand apart in the source and are kept apart here.

The target of one series is IRAP (Rattus norvegicus (Rat), UniProt P97629). The series can be described thus: Inhibition of IRAP activity (AVP degradation by rat epididymal fat pad microsomes, MALDI-MS). Particulars: read-out: IRAP IC50.
A short description of series [1]: Antidiuresis test in continuously hydrated rats with additional water loading (oral administration). The settings on record: for change of plasma sodium level (in words): after three hours and four hours of the administration, additional water loads; for urine production after additional water loads: groups with additional water loads (15 mL/kg at 2 h and 3 h); for urine production after additional water loads / plasma sodium level, 3 hours after administration / plasma sodium level, 4 hours after administration / urine production: EX-a 100 mg/kg, EX-b 30 mg/kg; for urine production after additional water loads / urine production: dDAVP 30 μg/kg oral; for plasma sodium level, 3 hours after administration / plasma sodium level, 4 hours after administration: groups with additional water loads, oral, dDAVP 30 μg/kg; for urine production: groups without additional water loads, after two hours of the administration, maintained until four hours. In kind it is in vivo, Male Wistar rats. Here is the method:
FIG. 1 is a graph showing temporal changes in urine volumes of individual groups in the pharmacological test (4): antidiuresis test in continuously hydrated rats with additional water loading. The vertical axis represents urine volume (mL/30 min) and the horizontal axis represents elapsed time (hr) from the administration of the test compound. Groups represented by “ . . . +Water” are water-loaded groups. The arrows in the horizontal axis represent the time points of additional water-loading.
(4) Antidiuresis Test in Continuously Hydrated Rats with Additional Water Loading (Oral Administration)
Male Wistar rats were used in the test. Initially, water load with 15 mL/kg of distilled water was forcedly administered to the rats. Every 30 minutes after loading water, urine volume collected during 30 minutes was measured and distilled water was forcedly administered to the rats in an amount equal to the urine volume excreted during the last 30 minutes. This water load procedure was repeated to the termination of the test to maintain the diuretic state. […] The individual groups were further divided into two subgroups, and additional distilled water of 15 mL/kg load was forcedly administered to one of the subgroups two times, i.e. at two hours and three hours after the administration. For comparison, the Vehicle group administered only with the vehicle was also subjected to the additional administrations of water load. Blood was collected from a half of the rats in each group subjected to additional administrations of water load, at three hours after the administration (immediately before the second additional water load) and from the other half at four hours after the administration, and plasma sodium levels were measured with an automatic electrolyte analyzer to determine the plasma sodium levels at three hours and four hours after the administration, respectively (each group consisted of seven to eight rats). Changes in the urine volume in individual groups are shown in FIG. 1, and the plasma sodium levels of the group administered with additional water loads are shown in Table 4.

[2] abbreviates: rat fat pad microsomes, AVP 25 μM, 1 h at 37° C.

Chain of IRAP (P97629 whole entry): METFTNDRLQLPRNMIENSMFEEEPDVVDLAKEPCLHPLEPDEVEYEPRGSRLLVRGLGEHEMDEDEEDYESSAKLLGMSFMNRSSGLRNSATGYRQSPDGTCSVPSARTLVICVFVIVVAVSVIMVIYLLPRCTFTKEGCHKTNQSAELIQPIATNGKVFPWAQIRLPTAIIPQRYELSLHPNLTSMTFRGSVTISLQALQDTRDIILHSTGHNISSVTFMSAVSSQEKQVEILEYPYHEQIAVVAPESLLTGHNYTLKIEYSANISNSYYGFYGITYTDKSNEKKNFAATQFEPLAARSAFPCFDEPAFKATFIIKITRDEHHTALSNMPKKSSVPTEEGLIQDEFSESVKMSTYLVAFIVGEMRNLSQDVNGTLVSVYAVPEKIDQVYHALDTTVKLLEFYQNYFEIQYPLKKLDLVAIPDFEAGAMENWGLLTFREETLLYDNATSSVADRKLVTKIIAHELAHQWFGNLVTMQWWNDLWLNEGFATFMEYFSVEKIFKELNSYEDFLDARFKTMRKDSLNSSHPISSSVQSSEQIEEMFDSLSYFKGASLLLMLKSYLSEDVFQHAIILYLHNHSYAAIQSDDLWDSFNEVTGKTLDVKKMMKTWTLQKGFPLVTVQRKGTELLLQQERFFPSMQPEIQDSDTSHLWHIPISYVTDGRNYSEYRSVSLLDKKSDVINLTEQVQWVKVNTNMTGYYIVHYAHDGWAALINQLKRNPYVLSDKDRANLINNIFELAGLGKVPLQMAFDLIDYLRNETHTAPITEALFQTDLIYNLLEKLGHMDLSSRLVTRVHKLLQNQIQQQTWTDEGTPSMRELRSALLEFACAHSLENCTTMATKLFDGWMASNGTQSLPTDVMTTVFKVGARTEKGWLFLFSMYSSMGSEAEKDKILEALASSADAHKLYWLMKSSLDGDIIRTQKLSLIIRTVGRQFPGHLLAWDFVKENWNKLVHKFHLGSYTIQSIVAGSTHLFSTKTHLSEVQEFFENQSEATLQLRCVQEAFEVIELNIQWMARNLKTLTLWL

As to `C[C@H]1CC[C@H](Oc2ccnc(C[C@](O)(C(=O)O)[C@@H](N)Cn3cccn3)c2)CC1` [Example 85], at IRAP (setting [2]), the IC50 (as a rule, the midpoint of a concentration-inhibition curve) came to 110 nM. The same measure, in the same setting: as for `N[C@@H](COCc1ccccc1)[C@](O)(Cc1cc(OC2CCCCC2)ccn1)C(=O)O` [Example 51], the figure is 13 nM. The same measure, in the same setting: as for `CC(C)C[C@H](N)[C@](O)(Cc1cc(OCCOC2CCCCC2)ccn1)C(=O)O` [Example 97], the figure is 2.8 nM; as for `COc1cccc(Oc2ccnc(C[C@](O)(C(=O)O)[C@@H](N)CC(C)C)c2)c1` [Example 101], 200 nM. Still for that read-out and setting: the figure for `Cc1ccc(OC[C@H](N)[C@](O)(Cc2cc(OC3CCCCC3)ccn2)C(=O)O)nc1` [Example 77] is 8.8 nM. For the compound `COCCCCC[C@H](N)[C@](O)(Cc1cc(OC2CCCCC2)ccn1)C(=O)O` [Example 75], the half-inhibitory concentration (IC50) on IRAP (setting [2]) came out at 1.2 nM. On the same count and under the same terms, the figure for `COc1cc(F)cc(OC[C@H](N)[C@](O)(Cc2cc(OC3CCCCC3)ccn2)C(=O)O)c1` [Example 31] is 27 nM. For the compound `CC(C)C[C@H](N)[C@](O)(Cc1cc(O[C@H]2CC[C@H](C)CC2)ccn1)C(=O)O` (relative stereo) [EX-a, (2R,3S)-3-amino-2-hydroxy-5-methyl-2-({4-[(trans-4-methylcyclohexyl)oxy]pyridin-2-yl}methyl)hexanoic acid], in series [1], the “change of plasma sodium level (in words)” value is given as “slightly decreased”; the “urine production after additional water loads” value is “resumed after administration of the additional water loads”; the “plasma sodium level, 3 hours after administration” value (“plasma sodium level, 3 hours” for short) is listed as 134.9 ± 0.4 mmol/L; the “plasma sodium level, 4 hours after administration” value (shortened to “plasma sodium level, 4 hours”) is on record as 133.2 ± 0.7 mmol/L. In addition, the urine production result in series [1] is “almost stopped”. As to `COc1ccnc(C[C@](O)(C(=O)O)[C@@H](N)CC(C)C)c1C` [Example 22], on IRAP (setting [2]), the IC50 came out at 250 nM. On the same count and under the same terms, the figure for `CC(C)CC[C@H](N)[C@](O)(Cc1cc(OC2CCCCC2)ccn1)C(=O)O` [Example 66] is 1.9 nM. As for `N[C@@H](c1ccc(Br)cc1)[C@](O)(Cc1cc(OC2CCCCC2)ccn1)C(=O)O` [Example 68], the 50% inhibitory concentration (IC50) at IRAP (value marked *: measured using a dihydrochloride salt of the compound of the Example) was found to be 5.4 nM. With `N[C@@H](COc1cccc(Br)c1)[C@](O)(Cc1cc(OC2CCCCC2)ccn1)C(=O)O` [Example 70], the IC50 on IRAP (setting [2]) is 13 nM.

Take `COc1cc(C[C@](O)(C(=O)O)[C@@H](N)CC(C)C)ncc1Br` [Example 53]: at IRAP (setting [2]), the IC50 was determined as 290 nM.

For `N[C@@H](COCCC(F)(F)F)[C@](O)(Cc1cc(OC2CCCCC2)ccn1)C(=O)O` [Example 74], the half-inhibitory concentration (IC50) on IRAP (setting [2]) was determined as 5.3 nM. Still for that read-out and setting: the figure for `NC(COc1ccccc1Br)C(O)(Cc1cc(OC2CCCCC2)ccn1)C(=O)O` (centres unmarked) [Example 71] is 15 nM. On the same count and under the same terms, the figure for `COCc1ccc(OC[C@H](N)[C@](O)(Cc2cc(OC3CCCCC3)ccn2)C(=O)O)cc1` [Example 30] is 11 nM. In the case of `N[C@@H](c1ccc(-c2ccccc2)cc1)[C@](O)(Cc1cc(OC2CCCCC2)ccn1)C(=O)O` [Example 36], the IC50 on IRAP (setting [2]) was found to be 4.9 nM. Still for that read-out and setting: as for `N[C@@H](c1ccc(S(=O)(=O)C2CC2)cc1)[C@](O)(Cc1cc(OC2CCCCC2)ccn1)C(=O)O` [Example 24], the figure is 6.2 nM; as for `N[C@@H](/C=C/c1ccccc1)[C@](O)(Cc1cc(OC2CCCCC2)ccn1)C(=O)O` [Example 40], 8 nM.

Consider `CC(C)C[C@H](N)[C@](O)(Cc1cc(O)ccn1)C(=O)O` [7(2), (2R,3S)-3-amino-2-hydroxy-2-[(4-hydroxypyridin-2-yl)methyl]-5-methylhexanoic acid], for which, at IRAP (setting [2]), the IC50 is 200 nM.

As for `COc1cc(C[C@](O)(C(=O)O)[C@@H](N)CC(C)C)ncc1COCc1ccccc1` [Example 57], on IRAP (setting [2]), the IC50 was 130 nM.

`CCSC[C@H](N)[C@](O)(Cc1cc(O[C@H]2CC[C@H](C)CC2)ccn1)C(=O)O` [EX-b, (2R,3R)-3-amino-4-(ethylsulfanyl)-2-hydroxy-2-({4-[(trans-4-methylcyclohexyl)oxy]pyridin-2-yl}methyl)butanoic acid]: in series [1], the “change of plasma sodium level (in words)” value is “slightly decreased”; the “urine production after additional water loads” value is recorded as “resumed after administration of the additional water loads”; the “plasma sodium level, 3 hours” value turned out to be 140.4 ± 0.4 mmol/L; the “plasma sodium level, 4 hours” value was 139.2 ± 0.5 mmol/L. The urine production entry in series [1] is on record as “almost stopped”. Take `CC(C)C[C@H](N)[C@@]1(Cc2cc(O[C@H]3CC[C@H](C)CC3)ccn2)OC(C)(C)OC1=O` [Example 8, (5R)-5-[(1S)-1-amino-3-methylbutyl]-2,2-dimethyl-5-({4-[(trans-4-methylcyclohexyl)oxy]pyridin-2-yl}methyl)-1,3-dioxolan-4-one dihydrochloride]: the half-inhibitory concentration (IC50) on IRAP (setting [2]) is 170 nM.

As to `NC(=O)CC[C@@H]1NC(=O)[C@H](Cc2ccccc2)NC(=O)[C@H](Cc2ccc(O)cc2)NC(=O)CCSSC[C@@H](C(=O)N2CCC[C@H]2C(=O)N[C@H](CCCN=C(N)N)C(=O)NCC(N)=O)NC(=O)[C@H](CC(N)=O)NC1=O` [dDAVP, Desmopressin, reference compound], in series [1], the “change of plasma sodium level (in words)” value is reported as “more significant decreases”; the “urine production after additional water loads” value is on record as “not resumed”; the “plasma sodium level, 3 hours” value is 132.0 ± 0.4 mmol/L; the “plasma sodium level, 4 hours” value is recorded as 128.0 ± 0.3 mmol/L. For the same compound, in series [1], the urine production entry is on record as “almost stopped”. Regarding `CC(C)C[C@H](N)[C@](O)(Cc1cc2c(cn1)ncn2CCC1CCCCC1)C(=O)O` [Example 33], the concentration for half-maximal inhibition (IC50) on IRAP (setting [2]) was found to be 2.5 nM. Same read-out and setting: the figure for `COCc1ccc([C@H](N)[C@](O)(Cc2cc(OC3CCCCC3)ccn2)C(=O)O)cc1` [Example 50] is 14 nM; for `CS(=O)(=O)c1ccc(-c2ccc([C@H](N)[C@](O)(Cc3cc(OC4CCCCC4)ccn3)C(=O)O)cc2)cc1` [Example 45] it is 0.42 nM; for `N[C@@H](c1ccc(N2CCOCC2)cc1)[C@](O)(Cc1cc(OC2CCCCC2)ccn1)C(=O)O` [Example 48] it is 5.2 nM. On the same count and under the same terms, as for `N[C@@H](COC1CCCCC1)[C@](O)(Cc1cc(OCCC2CC2)ccn1)C(=O)O` [Example 79], the figure is 33 nM. Still for that read-out and setting: as for `CC(C)C[C@H](N)[C@](O)(Cc1cc2c(cn1)OCCO2)C(=O)O` [Example 62], the figure is 290 nM; as for `N[C@@H](c1ccc(C2CC2)cc1)[C@](O)(Cc1cc(OC2CCCCC2)ccn1)C(=O)O` [Example 23], 8.2 nM. As for `N[C@@H](COc1ccc(F)cc1)[C@](O)(Cc1cc(NC2CCCCC2)ccn1)C(=O)O` [Example 91], the IC50 at IRAP (setting [2]) is 15 nM.
